Values quoted from earlier work as cited in patent publication US20130280348A1, “Carbon dioxide and saline nasal delivery methods and treatments” (Glynn Tech, Inc., priority 2012, published 2013).

Key:
[1] = system: seasonal allergic rhinitis (SAR); settings: intranasal
[2] = system: nasal allergen challenge (grass or ragweed allergen) in subjects with SAR

O=C=O [CO(2), carbon dioxide]
symptoms of seasonal allergic rhinitis (SAR) [1]: reduce symptoms | histamine levels in ipsilateral nasal secretions ([2]; after pretreatment with CO(2), increased significantly with sham treatment): did not increase | ipsilateral secretion weights ([2]; compared with no treatment): numerically reduced | sneezes ([2]; compared with no treatment, 12 subjects with SAR, 20-second CO(2) exposure 30 minutes before challenge, p=0.05): significant reduction | bilateral runny nose symptoms ([2]; compared with no treatment, p=0.01): significant reduction | contralateral secretion weights (reflex secretory response to allergen, primary outcome) ([2]; compared with no treatment, p=0.04): significant reduction | sensation reported by subjects during exposure ([2]; during 20-second exposure to CO(2)): transient burning sensation | acute response to allergen challenge ([2]; treatment with nasal CO(2)): partial reduction | reflex responses ([2]; treatment with nasal CO(2)): reduced
